Experimental data published in patent US8592422B2, “Bicyclic triazole and pyrazole lactams as allosteric modulators of mGluR5 receptors” (Vanderbilt University, priority 2010, dated 2013).
Where two headings read alike, the source gives them in different places.

Columns and labels:
[1] = molecular target: T1, human mGluR5a receptor (Homo sapiens, UniProt P41594); assay: Cell-based functional Ca2+ mobilization assay (FDSS), potentiation of glutamate EC20 response; settings: for EC50 / pEC50: HEK cells transfected with human mGluR5 (H10H or H12H), in presence of EC20 glutamate; for Emax / Emax (%): maximum % effect in concentration-response curve, as percent of response to maximally effective glutamate
T1 construct: cDNA subcloned into pcDNA3.1(-)
T1 sequence (P41594 21-1180 isoform P41594-2 limits assumed): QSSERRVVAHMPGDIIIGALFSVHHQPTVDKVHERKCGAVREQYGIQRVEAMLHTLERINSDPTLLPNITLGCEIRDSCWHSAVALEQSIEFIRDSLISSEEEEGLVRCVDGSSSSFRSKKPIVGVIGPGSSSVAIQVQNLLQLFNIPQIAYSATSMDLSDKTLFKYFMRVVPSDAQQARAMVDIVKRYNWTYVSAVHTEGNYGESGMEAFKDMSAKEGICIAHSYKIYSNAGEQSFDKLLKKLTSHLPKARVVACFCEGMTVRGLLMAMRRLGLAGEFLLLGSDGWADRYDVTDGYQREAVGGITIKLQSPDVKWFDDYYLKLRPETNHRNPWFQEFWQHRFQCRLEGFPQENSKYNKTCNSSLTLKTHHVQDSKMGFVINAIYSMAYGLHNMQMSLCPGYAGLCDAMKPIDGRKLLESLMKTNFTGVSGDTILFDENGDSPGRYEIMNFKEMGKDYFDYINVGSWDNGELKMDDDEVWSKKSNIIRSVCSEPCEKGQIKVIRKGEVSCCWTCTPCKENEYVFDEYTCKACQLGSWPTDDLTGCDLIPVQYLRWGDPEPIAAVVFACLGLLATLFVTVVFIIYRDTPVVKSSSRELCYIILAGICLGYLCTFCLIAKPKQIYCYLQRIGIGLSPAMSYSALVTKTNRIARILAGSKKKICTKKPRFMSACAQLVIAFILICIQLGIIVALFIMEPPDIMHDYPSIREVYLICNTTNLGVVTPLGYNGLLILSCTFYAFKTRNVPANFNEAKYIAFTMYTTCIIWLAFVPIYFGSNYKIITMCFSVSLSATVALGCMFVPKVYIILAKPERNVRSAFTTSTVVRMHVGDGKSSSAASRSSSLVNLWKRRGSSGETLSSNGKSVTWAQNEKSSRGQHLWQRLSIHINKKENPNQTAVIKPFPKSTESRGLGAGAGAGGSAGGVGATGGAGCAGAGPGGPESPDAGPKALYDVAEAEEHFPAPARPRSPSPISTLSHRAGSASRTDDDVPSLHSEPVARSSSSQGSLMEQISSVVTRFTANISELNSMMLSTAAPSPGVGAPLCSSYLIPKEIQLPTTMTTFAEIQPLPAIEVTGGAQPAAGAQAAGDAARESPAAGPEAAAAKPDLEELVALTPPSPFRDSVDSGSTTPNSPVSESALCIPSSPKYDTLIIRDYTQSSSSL
Procedure, shortened: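 HEK293A cells stably expressing human mGluR5a (H10H or H12H clones), plated overnight in glutamate-glutamine-free medium, loaded with Ca2+-sensitive dye (e.g. Fluo-4) and read on FDSS.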

CNc1nc(N2CCn3nc(COc4ccccc4)cc3C2=O)ncc1F [Example 279]
melting point: 176.6 °C | EC50 ([1]; read-out: EC50): 224 nM | Emax [1]: 69%

O=C1c2cc(COc3ccccc3)nn2CCN1c1nccc(N2CCCC2)n1 [Example 309]
melting point: 143.2 °C | EC50 ([1]; read-out: EC50): 3550 nM | Emax [1]: 56%

COc1ccnc(N2CCn3nc(COc4ccccc4)cc3C2=O)n1 [Example 78]
melting point: 144.5 °C | EC50 ([1]; read-out: EC50): 490 nM | Emax [1]: 69%

O=C1c2cc(COc3ccc(F)cn3)nn2CCN1c1ccc(F)cc1 [Example 181]
melting point: 239.4 °C | EC50 ([1]; read-out: EC50): > 10000 nM | Emax [1]: 52%

CN(C)c1ccnc(OCc2cc3n(n2)CCN(c2ccc(F)cc2)C3=O)c1 [Example 312]
melting point: > 300 °C | EC50 ([1]; read-out: EC50): > 30200 nM | Emax [1]: 25%

O=C1c2cc(COc3cccc(F)c3)nn2CCN1c1ccc(F)cn1 [Example 178]
melting point: > 300 °C | EC50 ([1]; read-out: EC50): 115 nM | Emax [1]: 61%

Cc1cc(N2C(=O)c3cc(COc4ccccc4)nn3C[C@H]2C)ccc1F [Example 144]
melting point: 94.6 °C | EC50 ([1]; read-out: pEC50 (converted)): 32.4 nM | Emax [1]: 70%

COc1ccccc1N1CCn2nc(COc3ccccc3)cc2C1=O [Example 47]
melting point: 145.8 °C | EC50 ([1]; read-out: EC50): 93 nM | Emax [1]: 65%

CN(C)c1ccnc(N2CCn3nc(COc4ccccc4)cc3C2=O)c1 [Example 282]
melting point: 190.2 °C | EC50 ([1]; read-out: EC50): 1100 nM | Emax [1]: 64%

COc1cc(F)cc(N2CCn3nc(COc4ccccc4)cc3C2=O)c1 [Example 299]
melting point: 127.8 °C | EC50 ([1]; read-out: EC50): 110 nM | Emax [1]: 64%

Cc1ccc(OCc2cc3n(n2)CCN(c2ccc(F)cc2)C3=O)nc1 [Example 183]
melting point: 236.2 °C | EC50 ([1]; read-out: EC50): > 30200 nM | Emax [1]: 15%

Cc1ccc(N2CCn3nc(COc4ccccn4)cc3C2=O)cc1 [Example 218]
melting point: > 300 °C | EC50 ([1]; read-out: EC50): 470 nM | Emax [1]: 69%

Cc1ccnc(N2CCn3nc(COc4ccccc4)cc3C2=O)c1 [Example 17]
melting point: 131.3 °C | EC50 ([1]; read-out: EC50): 490 nM | Emax [1]: 72%

CN(C)c1ccc(N2CCn3nc(COc4ccccc4)cc3C2=O)nc1 [Example 287]
melting point: 164.8 °C | EC50 ([1]; read-out: EC50): 603 nM | Emax [1]: 67%

COc1cc(N2C(=O)c3cc(COc4ccccc4)nn3C[C@H]2C)ccc1F [Example 143]
melting point: 135.8 °C | EC50 ([1]; read-out: EC50): 81 nM | Emax [1]: 62%

O=C1c2cc(COc3ccccc3)nn2CCN1c1cccc(F)c1 [Example 8]
melting point: 155 °C | EC50 ([1]; EC50 (nM)): 132 nM | Emax [1]: 81%

Cc1cccc(OCc2cc3n(n2)C(C)CN(c2ccc(F)cc2)C3=O)c1 (stereo not shown) [Example 242]
melting point: 70.2 °C | EC50 ([1]; read-out: EC50): > 30200 nM | Emax [1]: 21%

COc1nccnc1N1C(=O)c2cc(COc3ccccc3)nn2C[C@H]1C [Example 149]
melting point: 104.9 °C | EC50 ([1]; read-out: EC50): 794 nM | Emax [1]: 64%

CNc1cccc(OCc2cc3n(n2)CCN(c2ccc(F)cc2)C3=O)n1 [Example 311]
pEC50 [1]: <4.52 | EC50 ([1]; read-out: EC50): > 30200 nM | Emax (%) [1]: 28%

O=C1c2c(Cl)c(COc3ccccc3)nn2CCN1c1ccc(F)cc1 [Example 260]
pEC50 [1]: <4.52 | EC50 ([1]; read-out: EC50): > 30200 nM | Emax (%) [1]: 17%

O=C1c2cc(COc3ccccc3)nn2CCN1c1cccc(=O)[nH]1 [Example 359]
EC50 ([1]; read-out: EC50): 420 nM | Emax [1]: 64%

COc1nc(N2CCn3nc(COc4ccccc4)cc3C2=O)ncc1F [Example 91]
pEC50 [1]: 7.19 | EC50 ([1]; read-out: EC50): 65 nM | Emax (%) [1]: 71%

Cc1cccc(OCc2cc3n(n2)CCN(c2ccc(F)cc2)C3=O)n1 [Example 173]
pEC50 [1]: <5.00 | EC50 ([1]; read-out: EC50): > 10000 nM | Emax (%) [1]: 31%

CN1CCn2nc(COc3ccccc3)cc2C1=O [Example 2]
pEC50 [1]: 5.87 | EC50 ([1]; read-out: EC50): 1350 nM | Emax (%) [1]: 72%

Cc1cccc(OCc2cc3n(n2)CC(C)N(c2ccc(F)cc2)C3=O)c1 (stereo not shown) [Example 243]
pEC50 [1]: 7.05 | EC50 ([1]; read-out: EC50): 89 nM | Emax (%) [1]: 68%

COc1cnnc(N2CCn3nc(COc4ccccc4)cc3C2=O)c1 [Example 125]
EC50 ([1]; read-out: EC50): > 10000 nM | Emax [1]: 48%

COc1ncncc1N1CCn2nc(COc3ccccc3)cc2C1=O [Example 113]
EC50 ([1]; read-out: EC50): 724 nM | Emax [1]: 57%

O=C1c2cc(COc3ccnnc3)nn2CCN1c1ccc(F)cc1 [Example 201]
pEC50 [1]: <5.00 | EC50 ([1]; read-out: EC50): > 10000 nM | Emax (%) [1]: 46%

N#Cc1cccc(OCc2cc3n(n2)CCN(c2ccc(F)cc2)C3=O)c1 [Example 169]
pEC50 [1]: 6.51 | EC50 ([1]; read-out: EC50): 309 nM | Emax (%) [1]: 62%

Cc1ccc(N2CCn3nc(COc4ccccc4)cc3C2=O)cc1F [Example 62]
pEC50 [1]: 7.27 | EC50 ([1]; read-out: EC50): 53 nM | Emax (%) [1]: 60%

CN(C)c1ccnc(N2CCn3nc(COc4ccccc4)cc3C2=O)n1 [Example 276]
pEC50 [1]: 5.90 | EC50 ([1]; read-out: EC50): 1260 nM | Emax (%) [1]: 68%

O=C1c2cc(COc3ccccc3)nn2CCN1c1cccc(C2CCNCC2)n1 [Example 275]
pEC50 [1]: <4.52 | EC50 ([1]; read-out: EC50): > 30200 nM | Emax (%) [1]: 36%

Cc1cccc(OCc2cc3n(n2)CCN(c2ccc(F)cn2)C3=O)c1 [Example 177]
pEC50 [1]: 6.42 | EC50 ([1]; read-out: EC50): 380 nM | Emax (%) [1]: 61%

Cc1cc(F)ccc1N1CCn2nc(COc3ccccc3)cc2C1=O [Example 60]
pEC50 [1]: 7.40 | EC50 ([1]; read-out: EC50): 40 nM | Emax (%) [1]: 66%

Cc1cc(N2CCn3nc(COc4ccc(F)cc4)cc3C2=O)ccc1F [Example 225]
EC50 ([1]; read-out: EC50): 61 nM | Emax [1]: 58%

O=C1c2cc(COc3ccccc3)nn2CCN1c1cnc2cccnn12 [Example 370]
EC50 ([1]; read-out: EC50): 1100 nM | Emax [1]: 68%

Cc1ccnc(OCc2cc3n(n2)CCN(c2ccc(F)cc2)C3=O)c1F [Example 198]
pEC50 [1]: 5.76 | EC50 ([1]; read-out: EC50): 1740 nM | Emax (%) [1]: 61%

Cc1ccnc(OCc2cc3n(n2)CCN(c2ccc(F)cc2)C3=O)c1 [Example 184]
pEC50 [1]: 6.45 | EC50 ([1]; read-out: EC50): 355 nM | Emax (%) [1]: 61%

COc1cnc(C)nc1N1CCn2nc(COc3ccccc3)cc2C1=O [Example 119]
EC50 ([1]; read-out: EC50): 2300 nM | Emax [1]: 72%

Cc1cc(N2CCn3nc(COc4ccccn4)cc3C2=O)ccc1F [Example 203]
pEC50 [1]: 6.78 | EC50 ([1]; read-out: EC50): 166 nM | Emax (%) [1]: 66%

COc1ccnc(N2CCn3nc(COc4ccccc4)cc3C2=O)c1 [Example 115]
pEC50 [1]: 5.96 | EC50 ([1]; read-out: EC50): 1100 nM | Emax (%) [1]: 66%

CC1CN(c2ccc(F)cc2)C(=O)c2cc(COc3ccccc3)nn21 (single isomer, unassigned) [Example 130]
pEC50 [1]: 7.08 | EC50 ([1]; read-out: EC50): 83 nM | Emax (%) [1]: 71%

COc1cncc(N2CCn3nc(COc4ccccn4)cc3C2=O)n1 [Example 213]
EC50 ([1]; read-out: EC50): 660 nM | Emax [1]: 56%

O=C1c2cc(COc3ccccc3)nn2CCN1c1cc(F)cc2cccnc12 [Example 372]
EC50 ([1]; read-out: EC50): 130 nM | Emax [1]: 67%

Cc1cnnc(N2CCn3nc(COc4ccccc4)cc3C2=O)c1 [Example 93]
pEC50 [1]: <4.52 | EC50 ([1]; read-out: EC50): > 30200 nM | Emax (%) [1]: 29%

COc1nccc(N2C(=O)c3cc(COc4ccccc4)nn3CC2C)n1 (stereo not shown) [Example 145]
pEC50 [1]: 5.85 | EC50 ([1]; read-out: EC50): 1410 nM | Emax (%) [1]: 59%

O=C1c2cc(COc3ccccc3)nn2CCN1c1ccc2nsnc2c1 [Example 371]
pEC50 [1]: 7.49 | EC50 ([1]; read-out: EC50): 32 nM | Emax (%) [1]: 68%

O=c1[nH]ccn2nc(COc3ccccc3)cc12 [Example 378]
pEC50 [1]: <4.52 | EC50 ([1]; read-out: EC50): > 30200 nM | Emax (%) [1]: 29%
